Source: ChEMBL document CHEMBL1201862, “PubChem BioAssay data set” (2004)
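Each compound was tested at five concentrations against cells in 96-well plates for 48 hours. At the GI50, growth is halved.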 Activity calls are given as the source filed them. Rule as the data show it: active = GI50 up to about 1.1 µM and inactive = higher.

Legend:
Experiment in all cases: growth of human tumour cells (NCI), 48 h
786-0 = test system: 786-0
A549 = test system: A549
ACHN = test system: ACHN
CAKI-1 = test system: CAKI-1
CCRF-CEM = test system: CCRF-CEM
COLO 205 = test system: COLO 205
DLD-1 = test system: DLD-1
DMS-273 = test system: DMS-273
EKVX = test system: EKVX
HCT-15 = test system: HCT-15
HL-60 = test system: HL-60
HOP-18 = test system: HOP-18
HOP-62 = test system: HOP-62
HOP-92 = test system: HOP-92
HT-29 = test system: HT-29
IGROV-1 = test system: IGROV-1
K562 = test system: K562
KM-20L2 = test system: KM-20L2
LOX IMVI = test system: LOX IMVI
M14 = test system: M14
M19-MEL = test system: M19-MEL
MOLT-4 = test system: MOLT-4
Malme-3M = test system: Malme-3M
NCI-H23 = test system: NCI-H23
NCI-H460 = test system: NCI-H460
OVCAR-3 = test system: OVCAR-3
OVCAR-4 = test system: OVCAR-4
OVCAR-8 = test system: OVCAR-8
RPMI-8226 = test system: RPMI-8226
RXF 393 = test system: RXF 393
SF-295 = test system: SF-295
SF-539 = test system: SF-539
SK-MEL-28 = test system: SK-MEL-28
SK-MEL-5 = test system: SK-MEL-5
SK-OV-3 = test system: SK-OV-3
SN12C = test system: SN12C
SNB-19 = test system: SNB-19
SNB-75 = test system: SNB-75
SNB-78 = test system: SNB-78
SW-620 = test system: SW-620
TK-10 = test system: TK-10
U-251 = test system: U-251
UACC-257 = test system: UACC-257
UACC-62 = test system: UACC-62
UO-31 = test system: UO-31
XF498 = test system: XF498
DMS-114 = test system: DMS-114
HCC 2998 = test system: HCC 2998
HCT-116 = test system: HCT-116
KM12 = test system: KM12
NCI-H226 = test system: NCI-H226
NCI-H522 = test system: NCI-H522
OVCAR-5 = test system: OVCAR-5
SF-268 = test system: SF-268
SK-MEL-2 = test system: SK-MEL-2
SR = test system: SR
A498 = test system: A498
LXFL 529 = test system: LXFL 529

CC1OC(n2ccc(=O)[nH]c2=O)C=C(OC(=O)c2ccccc2)C1=O (stereo not drawn)
GI50 (786-0): > 100 µM (inactive)
GI50 (A549): 39.3 µM (inactive)
GI50 (ACHN): 76.7 µM (inactive)
GI50 (CAKI-1): 42.6 µM (inactive)
GI50 (CCRF-CEM): > 100 µM (inactive)
GI50 (COLO 205): > 100 µM (inactive)
GI50 (DLD-1): > 100 µM (inactive)
GI50 (DMS-273): > 100 µM (inactive)
GI50 (EKVX): > 100 µM (inactive)
GI50 (HCT-15): > 100 µM
GI50 (HL-60): > 100 µM (inactive)
GI50 (HOP-18): 38.4 µM (inactive)
GI50 (HOP-62): 71.9 µM (inactive)
GI50 (HOP-92): 30.2 µM (inactive)
GI50 (HT-29): 44.6 µM (inactive)
GI50 (IGROV-1): > 100 µM (inactive)
GI50 (K562): > 100 µM (inactive)
GI50 (KM-20L2): 73.5 µM (inactive)
GI50 (LOX IMVI): 35.7 µM (inactive)
GI50 (M14): 88.9 µM (inactive)
GI50 (M19-MEL): > 100 µM (inactive)
GI50 (MOLT-4): > 100 µM (inactive)
GI50 (Malme-3M): 74.6 µM (inactive)
GI50 (NCI-H23): 36.6 µM (inactive)
GI50 (NCI-H460): 48.6 µM (inactive)
GI50 (OVCAR-3): 26.9 µM (inactive)
GI50 (OVCAR-4): 18.9 µM (inactive)
GI50 (OVCAR-8): 45 µM (inactive)
GI50 (RPMI-8226): > 100 µM (inactive)
GI50 (RXF 393): 95.5 µM (inactive)
GI50 (SF-295): 51.1 µM (inactive)
GI50 (SF-539): > 100 µM (inactive)
GI50 (SK-MEL-28): 48.6 µM (inactive)
GI50 (SK-MEL-5): 56.1 µM (inactive)
GI50 (SK-OV-3): > 100 µM (inactive)
GI50 (SN12C): 88.3 µM (inactive)
GI50 (SNB-19): > 100 µM (inactive)
GI50 (SNB-75): 27 µM (inactive)
GI50 (SNB-78): > 100 µM (inactive)
GI50 (SW-620): 64.6 µM (inactive)
GI50 (TK-10): 49 µM (inactive)
GI50 (U-251): 29 µM (inactive)
GI50 (UACC-257): 86.9 µM (inactive)
GI50 (UACC-62): > 100 µM (inactive)
GI50 (UO-31): 55.6 µM (inactive)
GI50 (XF498): 21.2 µM (inactive)

COc1ccccc1/C=C1\C(=O)N(C(=O)c2ccc(NC(C)=O)cc2)N=C1C
GI50 (786-0): > 100 µM (inactive)
GI50 (A549): > 100 µM (inactive)
GI50 (ACHN): > 100 µM (inactive)
GI50 (CAKI-1): > 100 µM (inactive)
GI50 (CCRF-CEM): > 100 µM (inactive)
GI50 (COLO 205): > 100 µM (inactive)
GI50 (DLD-1): > 100 µM (inactive)
GI50 (DMS-114): > 100 µM (inactive)
GI50 (DMS-273): > 100 µM (inactive)
GI50 (EKVX): > 100 µM (inactive)
GI50 (HCC 2998): > 100 µM (inactive)
GI50 (HCT-116): > 100 µM (inactive)
GI50 (HCT-15): > 100 µM
GI50 (HL-60): > 100 µM (inactive)
GI50 (HOP-62): > 100 µM (inactive)
GI50 (HT-29): > 100 µM (inactive)
GI50 (K562): > 100 µM (inactive)
GI50 (KM12): > 100 µM (inactive)
GI50 (LOX IMVI): > 100 µM (inactive)
GI50 (M19-MEL): > 100 µM (inactive)
GI50 (MOLT-4): > 100 µM (inactive)
GI50 (Malme-3M): > 100 µM (inactive)
GI50 (NCI-H226): > 100 µM (inactive)
GI50 (NCI-H23): > 100 µM (inactive)
GI50 (NCI-H460): > 100 µM (inactive)
GI50 (NCI-H522): > 100 µM (inactive)
GI50 (OVCAR-3): > 100 µM (inactive)
GI50 (OVCAR-4): > 100 µM (inactive)
GI50 (OVCAR-5): > 100 µM (inactive)
GI50 (OVCAR-8): > 100 µM (inactive)
GI50 (RPMI-8226): > 100 µM (inactive)
GI50 (SF-268): > 100 µM (inactive)
GI50 (SF-295): > 100 µM (inactive)
GI50 (SF-539): > 100 µM (inactive)
GI50 (SK-MEL-28): > 100 µM (inactive)
GI50 (SK-MEL-2): > 100 µM (inactive)
GI50 (SK-MEL-5): > 100 µM (inactive)
GI50 (SN12C): > 100 µM (inactive)
GI50 (SNB-19): > 100 µM (inactive)
GI50 (SNB-75): > 100 µM (inactive)
GI50 (SNB-78): > 100 µM (inactive)
GI50 (SR): > 100 µM (inactive)
GI50 (SW-620): > 100 µM (inactive)
GI50 (TK-10): > 100 µM (inactive)
GI50 (U-251): > 100 µM (inactive)
GI50 (UACC-257): > 100 µM (inactive)
GI50 (UO-31): > 100 µM (inactive)
GI50 (XF498): > 100 µM (inactive)

O=C(c1ccncc1)n1nc(-c2ccccc2)c(/N=N/c2ccc([N+](=O)[O-])cc2)c1-c1ccccc1
GI50 (786-0): > 100 µM (inactive)
GI50 (A498): > 100 µM (inactive)
GI50 (A549): 55.7 µM (inactive)
GI50 (CAKI-1): 78.5 µM (inactive)
GI50 (CCRF-CEM): > 10 µM (inactive)
GI50 (COLO 205): 79.8 µM (inactive)
GI50 (DLD-1): > 100 µM (inactive)
GI50 (DMS-114): 24.4 µM (inactive)
GI50 (DMS-273): > 100 µM (inactive)
GI50 (EKVX): 3.27 µM (inactive)
GI50 (HCC 2998): 71.3 µM (inactive)
GI50 (HCT-116): 73.6 µM (inactive)
GI50 (HL-60): 89.3 µM (inactive)
GI50 (HOP-62): 39.4 µM (inactive)
GI50 (HOP-92): 27.5 µM (inactive)
GI50 (HT-29): 38.7 µM (inactive)
GI50 (IGROV-1): > 100 µM (inactive)
GI50 (K562): 54.7 µM (inactive)
GI50 (KM12): 34.8 µM (inactive)
GI50 (LXFL 529): 13.1 µM (inactive)
GI50 (M14): 92 µM (inactive)
GI50 (M19-MEL): > 100 µM (inactive)
GI50 (MOLT-4): 48.6 µM (inactive)
GI50 (Malme-3M): 90.6 µM (inactive)
GI50 (NCI-H226): 2.37 µM (inactive)
GI50 (NCI-H23): 22.6 µM (inactive)
GI50 (NCI-H522): 66.7 µM (inactive)
GI50 (OVCAR-3): 50.9 µM (inactive)
GI50 (OVCAR-4): 15 µM (inactive)
GI50 (OVCAR-8): 91.2 µM (inactive)
GI50 (RPMI-8226): 28.4 µM (inactive)
GI50 (SF-268): 49.5 µM (inactive)
GI50 (SF-295): 44.7 µM (inactive)
GI50 (SF-539): 89.5 µM (inactive)
GI50 (SK-MEL-28): > 100 µM (inactive)
GI50 (SK-MEL-2): 77.8 µM (inactive)
GI50 (SK-MEL-5): 27.3 µM (inactive)
GI50 (SK-OV-3): 94.8 µM (inactive)
GI50 (SN12C): > 100 µM (inactive)
GI50 (SNB-19): 31.6 µM (inactive)
GI50 (SNB-75): 12.6 µM (inactive)
GI50 (SNB-78): 14.8 µM (inactive)
GI50 (SR): 45.3 µM (inactive)
GI50 (SW-620): > 100 µM (inactive)
GI50 (TK-10): 57.8 µM (inactive)
GI50 (UACC-257): 92.3 µM (inactive)
GI50 (UACC-62): 90.8 µM (inactive)
GI50 (UO-31): 15.9 µM (inactive)
GI50 (XF498): 57.8 µM (inactive)
